Like-named read-outs stand apart in the source and are kept apart here.
Columns and labels:
[1] = Hydrophilic-lipophilic balance (Log P), phosphate-buffered saline / 1-octanol
Experimental: The data were calculated using the standard spectrophotometric method [ref] based on the relationship:
where A and A^1 are the absorption intensities before and after partitioning respectively and Vw and Vo are the respective volumes of the aqueous and 1-octanol phases. Determinations were repeated three times.

[2] = tested on: Escherichia coli (NCTC 10418); assay: Antimicrobial screening, photobactericidal efficacy; assay type: cell-based
Experimental: (§1) The photobactericidal efficacies of the derivatives in addition to that of the known photosensitiser methylene blue were measured against both Gram positive Staphylococcus aureus (NCTC 6571) and Enterococcus faecalis (NCIMB 13280) and Gram negative Escherichia coli (NCTC 10418), Proteus mirabilis (NCIMB 5887) and a clinical strain of Klebsiella pneumoniae bacteria. Both strains were grown in Mueller-Hinton Broth and then diluted to a concentration of 10^6 colony-forming units/ml. Aliquots of the strains were then incubated for 1 hour at 37° C. in microtitre trays with various concentrations of photosensitiser in a range of from 100 to 3 μM, with zero photosensitiser concentrations in each case for control purposes. The trays were then either illuminated for twenty minutes using an array of light-emitting diodes (660 nm) giving a light dose of 6.2 J cm^−2 or alternatively foil-covered to provide dark controls. From each well showing an inhibition of growth of the micro-organism, 1 μl was sub-cultured on nutrient agar, using the Miles-Misra method, and incubated for 18 hours at 37° C. The minimum bactericidal concentrations were then determined as the lowest concentration for each photosensitiser giving no bacterial growth.

[3] = tested on: Staphylococcus aureus (NCTC 6571); assay: as above; assay type: cell-based
Experimental: as §1

[4] = Singlet oxygen production (TPCPD decolourisation in dichloromethane); settings: singlet oxygen yield relative to methylene blue (= 1.0), time for 50% decrease in TPCPD absorption at 500 nm
Description: Thus the decrease in absorption at 500 nm was monitored spectrophotometrically with time using the method described by Cincotta et al. in “Novel red absorbing benzo[α]phenoxazinium and benzo[α]phenothiazinium photosensitizers: in vitro evaluation”, Photochem. […] To calculate the singlet oxygen yield for the derivative compounds of the present invention (ΦΔDer), the following formula was used:

[5] = tested on: Enterococcus faecalis (NCIMB 13280); assay: Antimicrobial screening, photobactericidal efficacy; assay type: cell-based; settings: for Minimum bactericidal/fungicidal concentration E. faecalis Dark: foil-covered dark control; for Minimum bactericidal/fungicidal concentration E. faecalis Light: illuminated 20 min, LED 660 nm, 6.2 J cm^−2
Experimental: as §1

[6] = tested on: Proteus mirabilis (NCIMB 5887); assay: as above; assay type: cell-based; settings: for Minimum bactericidal/fungicidal concentration P. mirabilis Dark: foil-covered dark control; for Minimum bactericidal/fungicidal concentration P. mirabilis Light: illuminated 20 min, LED 660 nm, 6.2 J cm^−2
Experimental: as §1

[7] = tested on: clinical strain of Klebsiella pneumoniae; assay: as above; assay type: cell-based; settings: for Minimum bactericidal/fungicidal concentration K. pneumoniae Dark: foil-covered dark control; for Minimum bactericidal/fungicidal concentration K. pneumoniae Light: illuminated 20 min, LED 660 nm, 6.2 J cm^−2
Experimental: as §1

[8] = tested on: Candida albicans (NCPF 8179); assay: Antifungal screening; assay type: cell-based; settings: Sabouraud broth and agar; for Minimum bactericidal/fungicidal concentration C. albicans Dark: foil-covered dark control; for Minimum bactericidal/fungicidal concentration C. albicans Light: illuminated 20 min, LED 660 nm, 6.2 J cm^−2
[9] = value given for the standard photosensitiser; cited from earlier work
[10] = phosphate-buffered saline / 1-octanol
[11] = Escherichia coli, NCTC10418, foil-covered dark control, read-out: Minimum Bactericidal Concentration E. coli (Dark)
[12] = Escherichia coli, NCTC10418, illuminated 20 min, LED 660 nm, 6.2 J cm^−2, 1 h incubation at 37° C., read-out: Minimum Bactericidal Concentration E. coli (Light)
[13] = Staphylococcus aureus, NCTC6571, foil-covered dark control, read-out: Minimum Bactericidal Concentration S. aureus (Dark)
[14] = Staphylococcus aureus, NCTC6571, illuminated 20 min, LED 660 nm, 6.2 J cm^−2, 1 h incubation at 37° C., read-out: Minimum Bactericidal Concentration S. aureus (Light)
[15] = partition between phosphate-buffered saline and 1-octanol, spectrophotometric method, repeated three times
[16] = foil-covered dark control, read-out: Minimum Bactericidal Concentration E. coli (Dark)
[17] = illuminated 20 min, LED 660 nm, 6.2 J cm^−2, 1 h incubation at 37° C., read-out: Minimum Bactericidal Concentration E. coli (Light)
[18] = foil-covered dark control, read-out: Minimum Bactericidal Concentration S. aureus (Dark)
[19] = illuminated 20 min, LED 660 nm, 6.2 J cm^−2, 1 h incubation at 37° C., read-out: Minimum Bactericidal Concentration S. aureus (Light)

Row | Molecule | logP [1, 10] | MBC [2, 11] [µM] | MBC [2, 12] [µM] | MBC [3, 13] [µM] | MBC [3, 14] [µM] | Relative ΦΔ [4] | Minimum bactericidal/fungicidal concentration E. faecalis Dark [5] [µM] | Minimum bactericidal/fungicidal concentration E. faecalis Light [5] [µM] | Minimum bactericidal/fungicidal concentration P. mirabilis Dark [6] [µM] | Minimum bactericidal/fungicidal concentration P. mirabilis Light [6] [µM] | Minimum bactericidal/fungicidal concentration K. pneumoniae Dark [7] [µM] | Minimum bactericidal/fungicidal concentration K. pneumoniae Light [7] [µM] | Minimum bactericidal/fungicidal concentration C. albicans Dark [8] [µM] | Minimum bactericidal/fungicidal concentration C. albicans Light [8] [µM] | logP [1, 15] | MBC [2, 16] [µM] | MBC [2, 17] [µM] | MBC [3, 18] [µM] | MBC [3, 19] [µM] | singlet oxygen yield (ΦΔMB) [9]
1 | CCN(CC)CCCC(C)Nc1ccc2nc3ccc(N(CC)CC)cc3[s+]c2c1 (stereo not drawn) [Example 7a, 3-(Diethylamino)-7-(5-(diethylamino)pentan-2-ylamino)phenothiazinium iodide] | 0.65 | 100 | 50 | 100 | 25 | 0.2 | – | – | – | – | – | – | – | – | – | – | – | – | – | –
2 | CCN(CC)CCN(C)c1ccc2nc3ccc(N(CC)CC)cc3[s+]c2c1 [Example 7d, 3-(Diethylamino)-7-((2-(diethylamino)ethyl)(methyl)amino)phenothiazinium iodide] | 0.74 | 100 | 50 | 50 | 25 | 1.4 | – | – | – | – | – | – | – | – | – | – | – | – | – | –
3 | CCCCN(CCCC)c1ccc2nc3ccc(N4CCN(CCN5CCN(c6ccc7nc8ccc(N(CCCC)CCCC)cc8[s+]c7c6)CC5)CC4)cc3[s+]c2c1.[I-].[I-] [Example 7g, 7,7′-(4,4′-(ethane-1,2-diyl)bis(piperazine-4,1-diyl))bis(3-(dibutylamino)phenothiazin-5-ium)iodide] | – | – | – | – | – | – | 12.5 | 1.56 | 100 | 0.78 | 100 | 3.13 | 25 | 3.13 | – | – | – | – | – | –
4 | CCN(CC)CCCN(CCCN(CC)CC)c1ccc2nc3ccc(N(CCCN(CC)CC)CCCN(CC)CC)cc3[s+]c2c1 [Example 4b, 3,7-Bis(bis(3-(diethylamino)propyl)amino)phenothiazinium bromide] | 0.11 | 100 | 25 | 100 | 50 | – | – | – | – | – | – | – | – | – | – | – | – | – | – | –
5 | OCCN(CCO)c1ccc2nc3ccc(NCCCN4CCOCC4)cc3[s+]c2c1.[I-] [Example 7f] | – | – | – | – | – | 0.2 | – | – | – | – | – | – | – | – | +0.57 | 50 | 25 | 25 | 25 | –
6 | CN(C)CCCN(CCCN(C)C)c1ccc2nc3ccc(N(CCCN(C)C)CCCN(C)C)cc3[s+]c2c1 [Example 4a, 3,7-Bis(bis(3-(dimethylamino)propyl)amino)phenothiazinium bromide] | – | 12.5 | 3.12 | 6.25 | 3.12 | – | – | – | – | – | – | – | – | – | – | – | – | – | – | –
7 | CN(C)c1ccc2nc3ccc(N(C)C)cc3[s+]c2c1 [Methylene blue, reference compound] | – | – | 25 | – | 25 | 1.00 | – | – | – | – | – | – | – | – | – | – | – | – | – | 0.443
8 | CO[Si](CCCNc1ccc2nc3ccc(N(C)C)cc3[s+]c2c1)(OC)OC [Example 2b, 3-(3-Trimethoxsilylpropyl)amino-7-dimethylaminophenothiazinium hydrogensulphate] | – | – | – | – | – | – | 50 | 0.78 | 100 | 1.56 | 100 | 1.56 | 25 | 3.13 | – | – | – | – | – | –
9 | CCCN(CCC)c1ccc2nc3ccc(N(CCCN(C)C)CCCN(C)C)cc3[s+]c2c1 [Example 7e, 3-(Bis(3-(dimethylamino)propyl)amino)-7-(di-n-propylamino)phenothiazinium iodide] | – | > 100 | 3.12 | > 100 | 3.12 | – | 100 | 0.19 | 100 | 0.39 | 100 | 3.13 | 100 | 3.13 | – | – | – | – | – | –
10 | 3-(Di-n-hexylamino)-7-((2-(diethylamino)ethyl)(ethyl)amino)phenothiazinium iodide [Example 7b] | – | – | – | – | – | 0.4 | 100 | 0.19 | 100 | 0.39 | 100 | 0.19 | 25 | 3.13 | +1.25 | 25 | 6.25 | 12.5 | 3.125 | –
11 | CCCCN(CCCC)c1ccc2nc3ccc(N(CC)CCN(CC)CC)cc3[s+]c2c1 [Example 7c, 3-(Di-n-butylamino)-7-((2-(diethylamino)ethyl)(ethyl)amino)phenothiazinium iodide] | 1.09 | 25 | 6.25 | 25 | 12.5 | 0.3 | 6.25 | 0.39 | 100 | 0.78 | 100 | 6.25 | 25 | 3.13 | – | – | – | – | – | –
12 | CCN(CC)CCN(C)c1ccc2nc3ccc(N(C)CCN(CC)CC)cc3[s+]c2c1 [Example 4f, 3,7-Bis((2-(diethylamino)ethyl)(methyl)amino)phenothiazinium bromide] | 0.27 | > 100 | 3.12 | > 100 | 6.25 | 0.6 | – | – | – | – | – | – | – | – | – | – | – | – | – | –
